Experimental data: ChEMBL document CHEMBL3259640 (J Med Chem, 2014)
pIC50: −log10 of the molar value. ≈ marks a conversion by molar mass, not a printed value.

Assays:
[1] = system: MDA-MB-468; experiment: Antiproliferative activity against human MDA-MB-468 cells assessed as cell viability after 96 hrs by CellTiter96 assay; format: functional, cell-based; conditions: MDA-MB-468, 96 h
[2] = system: HeLa; experiment: Antiproliferative activity against human HeLa cells assessed as cell viability after 96 hrs by CellTiter96 assay; format: functional, cell-based
[3] = system: K562; experiment: Antiproliferative activity against human K562 cells assessed as cell viability after 96 hrs by CellTiter96 assay; format: functional, cell-based; conditions: K562, 96 h
[4] = system: MDA-MB-231; experiment: Antiproliferative activity against human MDA-MB-231 cells assessed as cell viability after 96 hrs by CellTiter96 assay; format: functional, cell-based; conditions: MDA-MB-231, 96 h
[5] = Solubility of the compound in phosphate buffered saline containing 1% DMSO at pH 7.4 after 2 hrs by HPLC analysis; format: physicochemical

SMILES	pIC50 [1]	pIC50 [2]	pIC50 [3]	pIC50 [4]	solubility kinetic at 2 h [5]
Cc1cc(C)c(-c2csc(NC(=O)Cc3ccncc3)n2)c(C)c1	6.52	6.21	6.42	6.51	
Cc1cc(C)c(-c2csc(NC(=O)c3ccccc3)n2)c(C)c1	5.66	5.44	5.49	5.49	
Cc1cc(C)c(-c2csc(NC(=O)c3ccncc3)n2)c(C)c1					3.33 µM (≈ 1.08 µg/mL)

The remaining molecules from weak to strong by pIC50 [1], led by results:

pIC50 [1]	pIC50 [2]	pIC50 [3]	pIC50 [4]	solubility kinetic at 2 h [5]	SMILES
6.89	6.97	7.34	7.17		Cc1cc(Oc2ccc3c(c2)OCO3)cc(C)c1-c1csc(NC(=O)c2ccncc2)n1
7.43	7.31	7.46	7.49		COc1ccc(Oc2cc(C)c(-c3csc(NC(=O)c4ccncc4)n3)c(C)c2)cc1
